Results as given in patent US20230085307A1, “PYRIDAZINONE COMPOUND AND HERBICIDE” (NISSAN CHEMICAL CORPORATION, priority 2019, published 2023).

Key:
late watergrass = test: Test Example 1: herbicidal activity, application before weed generation under submerged conditions (Table 16, symbol A); assay type: in vivo, late watergrass (Echinochloa oryzicola); settings: 320 g/ha applied herbicide
Summary of the method: (§1)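 Emulsion formulation, water-diluted to set dose, was put onto the flooded surface (4 cm depth, alluvial soil) the same day weeds were sown and 2.5-leaf rice transplanted. After 3 weeks at 25-30 °C under glass, each species was rated 0 (≤5% kill) to 5 (≥90% kill).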

Japanese bulrush = test: Test Example 1: herbicidal activity, application before weed generation under submerged conditions (Table 16, symbol B); assay type: in vivo, Japanese bulrush (Schoenoplectus juncoides); settings: 320 g/ha applied herbicide
Summary of the method: as §1

oval-leafed pondweed = test: Test Example 1: herbicidal activity, application before weed generation under submerged conditions (Table 16, symbol C); assay type: in vivo, oval-leafed pondweed (Monochoria vaginalis); settings: 320 g/ha applied herbicide
Summary of the method: as §1

barnyard grass [1] = test: Test Example 3: herbicidal effect by foliage application, Wagner pot (Table 18, symbol H); assay type: in vivo, barnyard grass (Echinochloa crus-galli); settings: 320 g/ha
Summary of the method: (§2)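 Plants were sown in alluvial soil held under 0.1–0.5 cm standing water and grown 14 days in a greenhouse at 25–30 °C. An emulsifiable formulation, water-diluted to the set dose, was then sprayed onto the foliage, and effects were scored three weeks later using previously defined criteria.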

Chinese sprangletop = test: Test Example 3: herbicidal effect by foliage application, Wagner pot (Table 18, symbol D); assay type: in vivo, chinese sprangletop (Leptochloa chinensis); settings: 320 g/ha
Summary of the method: as §2

rice flat sedge = test: Test Example 3: herbicidal effect by foliage application, Wagner pot (Table 18, symbol E); assay type: in vivo, rice flat sedge (Cyperus iria); settings: 320 g/ha
Summary of the method: as §2

southern crabgrass [2] = test: Test Example 4: herbicidal effect by soil treatment (Table 19, symbol F); assay type: in vivo, southern crabgrass (Digitaria ciliaris); settings: 320 g/ha
Summary of the method: (§3)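 Pre-emergence style soil spray: seeds under ~1.5 cm sterilized diluvial soil received a uniform coat of emulsion diluted to the predetermined herbicide amount. Greenhouse 25–30° C; readout at week three on previously defined criteria.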

green foxtail [3] = test: Test Example 4: herbicidal effect by soil treatment (Table 19, symbol G); assay type: in vivo, green foxtail (Setaria viridis); settings: 320 g/ha
Summary of the method: as §3

barnyard grass [4] = test: Test Example 4: herbicidal effect by soil treatment (Table 19, symbol H); assay type: in vivo, barnyard grass (Echinochloa crus-galli); settings: 320 g/ha
Summary of the method: as §3

wild oat [5] = test: Test Example 4: herbicidal effect by soil treatment (Table 19, symbol I); assay type: in vivo, wild oat (Avena fatua); settings: 320 g/ha
Summary of the method: as §3

blackgrass [6] = test: Test Example 4: herbicidal effect by soil treatment (Table 19, symbol J); assay type: in vivo, blackgrass (Alopecurus myosuroides); settings: 320 g/ha
Summary of the method: as §3

Italian ryegrass [7] = test: Test Example 4: herbicidal effect by soil treatment (Table 19, symbol K); assay type: in vivo, Italian ryegrass (Lolium multiflorum); settings: 320 g/ha
Summary of the method: as §3

windgrass [8] = test: Test Example 4: herbicidal effect by soil treatment (Table 19, symbol L); assay type: in vivo, windgrass (Apera spica-venti); settings: 320 g/ha
Summary of the method: as §3

velvetleaf [9] = test: Test Example 4: herbicidal effect by soil treatment (Table 19, symbol M); assay type: in vivo, velvetleaf (Abutilon theophrasti); settings: 320 g/ha
Summary of the method: as §3

redroot pigweed = test: Test Example 4: herbicidal effect by soil treatment (Table 19, symbol N); assay type: in vivo, redroot pigweed (Amaranthus retroflexus); settings: 320 g/ha
Summary of the method: as §3

lambsquarters [10] = test: Test Example 4: herbicidal effect by soil treatment (Table 19, symbol O); assay type: in vivo, lambsquarters (Chenopodium album); settings: 320 g/ha
Summary of the method: as §3

chickweed = test: Test Example 4: herbicidal effect by soil treatment (Table 19, symbol P); assay type: in vivo, common chickweed (Stellaria media); settings: 320 g/ha
Summary of the method: as §3

persian speedwell [11] = test: Test Example 4: herbicidal effect by soil treatment (Table 19, symbol R); assay type: in vivo, Persian speedwell (Veronica persica); settings: 320 g/ha
Summary of the method: as §3

southern crabgrass [12] = test: Test Example 5: herbicidal effect by foliage application, plastic box (Table 20, symbol F); assay type: in vivo, southern crabgrass (Digitaria ciliaris); settings: foliage application, 320 g/ha, 3 weeks after application
Summary of the method: (§4)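 Plants were sown into sterilized diluvial soil under about 1.5 cm cover and kept in a greenhouse at 25° C. to 30° C. Fourteen days on, foliage received an even spray of the diluted emulsion. Herbicidal or crop effect was judged three weeks afterwards.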

green foxtail [13] = test: Test Example 5: herbicidal effect by foliage application, plastic box (Table 20, symbol G); assay type: in vivo, green foxtail (Setaria viridis); settings: foliage application, 320 g/ha, 3 weeks after application
Summary of the method: as §4

barnyard grass [14] = test: Test Example 5: herbicidal effect by foliage application, plastic box (Table 20, symbol H); assay type: in vivo, barnyard grass (Echinochloa crus-galli); settings: foliage application, 320 g/ha, 3 weeks after application
Summary of the method: as §4

wild oat [15] = test: Test Example 5: herbicidal effect by foliage application, plastic box (Table 20, symbol I); assay type: in vivo, wild oat (Avena fatua); settings: foliage application, 320 g/ha, 3 weeks after application
Summary of the method: as §4

blackgrass [16] = test: Test Example 5: herbicidal effect by foliage application, plastic box (Table 20, symbol J); assay type: in vivo, blackgrass (Alopecurus myosuroides); settings: foliage application, 320 g/ha, 3 weeks after application
Summary of the method: as §4

Italian ryegrass [17] = test: Test Example 5: herbicidal effect by foliage application, plastic box (Table 20, symbol K); assay type: in vivo, Italian ryegrass (Lolium multiflorum); settings: foliage application, 320 g/ha, 3 weeks after application
Summary of the method: as §4

windgrass [18] = test: Test Example 5: herbicidal effect by foliage application, plastic box (Table 20, symbol L); assay type: in vivo, windgrass (Apera spica-venti); settings: foliage application, 320 g/ha, 3 weeks after application
Summary of the method: as §4

velvetleaf [19] = test: Test Example 5: herbicidal effect by foliage application, plastic box (Table 20, symbol M); assay type: in vivo, velvetleaf (Abutilon theophrasti); settings: foliage application, 320 g/ha, 3 weeks after application
Summary of the method: as §4

lambsquarters [20] = test: Test Example 5: herbicidal effect by foliage application, plastic box (Table 20, symbol O); assay type: in vivo, lambsquarters (Chenopodium album); settings: foliage application, 320 g/ha, 3 weeks after application
Summary of the method: as §4

persian speedwell [21] = test: Test Example 5: herbicidal effect by foliage application, plastic box (Table 20, symbol R); assay type: in vivo, Persian speedwell (Veronica persica); settings: foliage application, 320 g/ha, 3 weeks after application
Summary of the method: as §4

Row | Structure (SMILES) | Herbicidal effect on A: late watergrass (grade 0-5) (late watergrass) | Herbicidal effect on B: Japanese bulrush (grade 0-5) (Japanese bulrush) | Herbicidal effect on C: oval-leafed pondweed (grade 0-5) (oval-leafed pondweed) | herbicidal effect on H (barnyard grass), rating 0-5 (barnyard grass [1]) | herbicidal effect on D (Chinese sprangletop), rating 0-5 (Chinese sprangletop) | herbicidal effect on E (rice flat sedge), rating 0-5 (rice flat sedge) | herbicidal effect rating, F: southern crabgrass (southern crabgrass [2]) | herbicidal effect rating, G: green foxtail (green foxtail [3]) | herbicidal effect rating, H: barnyard grass (barnyard grass [4]) | herbicidal effect rating, I: wild oat (wild oat [5]) | herbicidal effect rating, J: blackgrass (blackgrass [6]) | herbicidal effect rating, K: Italian ryegrass (Italian ryegrass [7]) | herbicidal effect rating, L: windgrass (windgrass [8]) | herbicidal effect rating, M: velvetleaf (velvetleaf [9]) | herbicidal effect rating, N: redroot pigweed (redroot pigweed) | herbicidal effect rating, O: lambsquarters (lambsquarters [10]) | herbicidal effect rating, P: chickweed (chickweed) | herbicidal effect rating, R: persian speedwell (persian speedwell [11]) | effect on southern crabgrass (F) (southern crabgrass [12]) | effect on green foxtail (G) (green foxtail [13]) | also measured
1 | Cc1nn(C)c(=O)c(-c2c(-c3ccc(F)cc3)sc3ccc(F)cc23)c1OC(=O)c1ccccc1Cl [2-005] | 0 (Herbicidal rate of 5% or less (almost no effect)) | 2 (Herbicidal rate of 20% or more and less than 40%) | 2 (Herbicidal rate of 20% or more and less than 40%) | 5 (Herbicidal rate of 90% or more (almost completely withered)) | 3 (Herbicidal rate of 40% or more and less than 70%) | 5 (Herbicidal rate of 90% or more (almost completely withered)) | 5 (Herbicidal rate of 90% or more (almost completely withered)) | 5 (Herbicidal rate of 90% or more (almost completely withered)) | 4 (Herbicidal rate of 70% or more and less than 90%) | 0 (Herbicidal rate of 5% or less (almost no effect)) | 0 (Herbicidal rate of 5% or less (almost no effect)) | 4 (Herbicidal rate of 70% or more and less than 90%) | 0 (Herbicidal rate of 5% or less (almost no effect)) | 4 (Herbicidal rate of 70% or more and less than 90%) | 4 (Herbicidal rate of 70% or more and less than 90%) | 4 (Herbicidal rate of 70% or more and less than 90%) | 4 (Herbicidal rate of 70% or more and less than 90%) | 3 (Herbicidal rate of 40% or more and less than 70%) | 5 (Herbicidal rate of 90% or more (almost completely withered)) | 5 (Herbicidal rate of 90% or more (almost completely withered)) | effect on barnyard grass (H) (barnyard grass [14]): 4 (Herbicidal rate of 70% or more and less than 90%); effect on wild oat (I) (wild oat [15]): 0 (Herbicidal rate of 5% or less (almost no effect)); effect on blackgrass (J) (blackgrass [16]): 3 (Herbicidal rate of 40% or more and less than 70%); effect on Italian ryegrass (K) (Italian ryegrass [17]): 4 (Herbicidal rate of 70% or more and less than 90%); effect on windgrass (L) (windgrass [18]): 0 (Herbicidal rate of 5% or less (almost no effect)); effect on velvetleaf (M) (velvetleaf [19]): 4 (Herbicidal rate of 70% or more and less than 90%); effect on lambsquarters (O) (lambsquarters [20]): 3 (Herbicidal rate of 40% or more and less than 70%); effect on persian speedwell (R) (persian speedwell [21]): 4 (Herbicidal rate of 70% or more and less than 90%)
2 | CCCC(=O)Oc1c(C)nn(C)c(=O)c1-c1c(-c2ccc(C(C)(C)C)cc2)sc2ccc(F)cc12 [2-017] | 2 (Herbicidal rate of 20% or more and less than 40%) | 0 (Herbicidal rate of 5% or less (almost no effect)) | 0 (Herbicidal rate of 5% or less (almost no effect)) | 5 (Herbicidal rate of 90% or more (almost completely withered)) | 3 (Herbicidal rate of 40% or more and less than 70%) | 2 (Herbicidal rate of 20% or more and less than 40%) | 0 (Herbicidal rate of 5% or less (almost no effect)) | 1 (Herbicidal rate of 5% or more and less than 20%) | 2 (Herbicidal rate of 20% or more and less than 40%) | 0 (Herbicidal rate of 5% or less (almost no effect)) | 0 (Herbicidal rate of 5% or less (almost no effect)) | 0 (Herbicidal rate of 5% or less (almost no effect)) | 0 (Herbicidal rate of 5% or less (almost no effect)) | 0 (Herbicidal rate of 5% or less (almost no effect)) | 4 (Herbicidal rate of 70% or more and less than 90%) | 2 (Herbicidal rate of 20% or more and less than 40%) | 0 (Herbicidal rate of 5% or less (almost no effect)) | 0 (Herbicidal rate of 5% or less (almost no effect)) | 0 (Herbicidal rate of 5% or less (almost no effect)) | 1 (Herbicidal rate of 5% or more and less than 20%) | effect on barnyard grass (H) (barnyard grass [14]): 3 (Herbicidal rate of 40% or more and less than 70%); effect on wild oat (I) (wild oat [15]): 0 (Herbicidal rate of 5% or less (almost no effect)); effect on blackgrass (J) (blackgrass [16]): 0 (Herbicidal rate of 5% or less (almost no effect)); effect on Italian ryegrass (K) (Italian ryegrass [17]): 0 (Herbicidal rate of 5% or less (almost no effect)); effect on windgrass (L) (windgrass [18]): 0 (Herbicidal rate of 5% or less (almost no effect)); effect on velvetleaf (M) (velvetleaf [19]): 1 (Herbicidal rate of 5% or more and less than 20%); effect on lambsquarters (O) (lambsquarters [20]): 1 (Herbicidal rate of 5% or more and less than 20%); effect on persian speedwell (R) (persian speedwell [21]): 3 (Herbicidal rate of 40% or more and less than 70%)
